Measurements as given in patent US20220220135A1 (BAR-ILAN UNIVERSITY, priority 2019, published 2022).

Assays:
NTPDase3 = target: T1, NTPDase3 (Homo sapiens, UniProt O75355); assay: Stability to hydrolysis by human NTPDase3; format: in vitro ADME; details: analogue 100 μM; activity with 100 μM ATP = 100%
T1 sequence (O75355 1-529): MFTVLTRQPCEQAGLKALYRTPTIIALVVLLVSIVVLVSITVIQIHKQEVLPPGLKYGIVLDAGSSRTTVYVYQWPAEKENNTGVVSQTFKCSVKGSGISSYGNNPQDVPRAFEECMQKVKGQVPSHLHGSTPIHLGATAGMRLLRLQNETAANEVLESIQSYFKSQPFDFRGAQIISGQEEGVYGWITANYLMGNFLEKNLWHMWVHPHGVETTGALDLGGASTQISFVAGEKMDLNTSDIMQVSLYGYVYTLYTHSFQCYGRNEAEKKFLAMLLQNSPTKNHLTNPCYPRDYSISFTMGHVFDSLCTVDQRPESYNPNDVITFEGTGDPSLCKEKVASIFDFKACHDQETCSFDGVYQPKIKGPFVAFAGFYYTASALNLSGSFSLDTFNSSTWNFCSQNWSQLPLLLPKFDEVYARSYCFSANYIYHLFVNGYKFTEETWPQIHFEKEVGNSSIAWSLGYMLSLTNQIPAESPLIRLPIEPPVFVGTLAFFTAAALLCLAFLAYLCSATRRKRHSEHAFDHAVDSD
Description: Uridine 5′-Pα,α-phosphorodithioate analogues, 9-12, were tested for their stability to degradation by NPP1 and NTPDases. These enzymes are involved in the metabolism of extracellular nucleotides. Analogues 9-12 were not hydrolyzed by hNPP1 (Table 2). […] Analogue 10 was hydrolyzed by hNTPDase1, -2 and -3 at 30-39% the rate of ATP and was slightly hydrolyzed by human NTPDase8 at 16% the rate of ATP.
Analogues 9-12 were incubated in the presence of the indicated ectonucleotidase at a concentration of 100 μM. The activity with 100 μM ATP was set as 100%, which was 329±108, 302±34, 263±51, 195±76 nmol of Pi·min−1·mg of protein−1 for NTPDase1, -2, -3 and -8, respectively, and 34±7 nmol for NPP1. Data presented are the mean±SEM of results from two experiments.

NPP1 = target: T2, NPP1 (Homo sapiens, UniProt P22413); assay: Inhibition of human NPP1, 100 μM ATP as substrate (FIG. 9, Table 6); format: biochemical; details: ATP (100 μM) as a substrate
T2 sequence (P22413 1-925): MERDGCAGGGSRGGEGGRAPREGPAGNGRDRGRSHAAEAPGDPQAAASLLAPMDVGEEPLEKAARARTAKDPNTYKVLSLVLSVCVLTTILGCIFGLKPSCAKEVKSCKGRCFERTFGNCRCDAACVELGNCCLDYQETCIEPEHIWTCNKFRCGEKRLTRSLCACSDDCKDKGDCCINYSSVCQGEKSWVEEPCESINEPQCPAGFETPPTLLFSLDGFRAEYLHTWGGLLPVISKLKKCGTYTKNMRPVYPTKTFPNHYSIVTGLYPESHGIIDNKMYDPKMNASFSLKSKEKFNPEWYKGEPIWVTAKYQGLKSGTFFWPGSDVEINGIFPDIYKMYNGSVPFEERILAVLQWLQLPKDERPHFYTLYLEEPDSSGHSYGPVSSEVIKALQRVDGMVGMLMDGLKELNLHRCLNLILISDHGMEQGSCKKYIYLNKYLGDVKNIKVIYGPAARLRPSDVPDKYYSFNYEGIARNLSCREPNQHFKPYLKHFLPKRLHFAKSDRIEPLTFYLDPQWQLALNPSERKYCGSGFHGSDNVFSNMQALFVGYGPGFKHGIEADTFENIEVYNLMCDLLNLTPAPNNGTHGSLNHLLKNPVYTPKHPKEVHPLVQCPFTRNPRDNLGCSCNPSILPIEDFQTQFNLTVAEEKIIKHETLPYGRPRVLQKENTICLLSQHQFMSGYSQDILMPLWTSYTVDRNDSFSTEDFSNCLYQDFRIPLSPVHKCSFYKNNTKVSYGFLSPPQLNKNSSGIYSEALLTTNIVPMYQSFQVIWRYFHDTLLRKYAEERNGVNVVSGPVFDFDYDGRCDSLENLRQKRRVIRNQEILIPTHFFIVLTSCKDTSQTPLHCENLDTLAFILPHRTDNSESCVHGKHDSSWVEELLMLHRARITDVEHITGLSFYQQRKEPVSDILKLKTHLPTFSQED
Description: Each experiment was performed in triplicates;

rat CD73 = target: T3, rat CD73 (Rattus norvegicus, UniProt P21588); assay: Inhibition of rat CD73, 5 μM [3H]AMP as substrate; format: biochemical; details: 5 μM [3H]AMP as a substrate; n = 3
T3 sequence (P21588 29-551): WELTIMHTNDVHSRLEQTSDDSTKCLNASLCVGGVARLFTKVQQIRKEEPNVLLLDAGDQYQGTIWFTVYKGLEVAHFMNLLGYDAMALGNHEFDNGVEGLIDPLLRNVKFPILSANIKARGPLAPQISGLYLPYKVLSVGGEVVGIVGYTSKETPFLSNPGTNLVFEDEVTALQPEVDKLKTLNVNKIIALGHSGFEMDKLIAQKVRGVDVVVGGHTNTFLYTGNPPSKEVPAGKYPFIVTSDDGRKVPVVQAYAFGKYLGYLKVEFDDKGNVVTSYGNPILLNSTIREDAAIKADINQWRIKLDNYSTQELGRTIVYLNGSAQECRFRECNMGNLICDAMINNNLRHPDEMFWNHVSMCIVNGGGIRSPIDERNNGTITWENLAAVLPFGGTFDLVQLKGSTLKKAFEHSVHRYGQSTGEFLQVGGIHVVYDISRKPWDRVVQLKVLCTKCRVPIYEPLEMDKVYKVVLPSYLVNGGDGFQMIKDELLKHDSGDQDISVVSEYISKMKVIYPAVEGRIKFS

human P2Y1R = target: T4, human P2Y1R (Homo sapiens, UniProt P47900); assay: Calcium mobilization in 1321N1 astrocytoma cells expressing human P2Y1R; format: cell-based
T4 construct: expressed in transfected cells; host or cells: 1321N1 astrocytoma cells
Description: Given the structural resemblance of 106-109 to the natural ligands of P2Y receptors, adenine and uracil nucleotides as natural substrates, were assessed for agonist potency on the human P2Y1, P2Y2, P2Y4, and P2Y6 receptor. To evaluate NPP1 selectivity of analogs 106-109, they were tested for their ability to activate of the uridine-nucleotide sensitive human recombinant P2Y1,2,4,6-receptors. The agonist potencies of this series of nucleotide analogues on the Gq protein-coupled human P2Y1R, P2Y2R, P2Y4R, and P2Y6R was determined by assessing its ability to induce calcium mobilization in stably transfected 1321N1 astrocytoma cells (Table 8). The nucleotide analogues were found in calcium mobilization assays to activate the P2Y2R with mid-micromolar potency.

T4 sequence (P47900 whole entry): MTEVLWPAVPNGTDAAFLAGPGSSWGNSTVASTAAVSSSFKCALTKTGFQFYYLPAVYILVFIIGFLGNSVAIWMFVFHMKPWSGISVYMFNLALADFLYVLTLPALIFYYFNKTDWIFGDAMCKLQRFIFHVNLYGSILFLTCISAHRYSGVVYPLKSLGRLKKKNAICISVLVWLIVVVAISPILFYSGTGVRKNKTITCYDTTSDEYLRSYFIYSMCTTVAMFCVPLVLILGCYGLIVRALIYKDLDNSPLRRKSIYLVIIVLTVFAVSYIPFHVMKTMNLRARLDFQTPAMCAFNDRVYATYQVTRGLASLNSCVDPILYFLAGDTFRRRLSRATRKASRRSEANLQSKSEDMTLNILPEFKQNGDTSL

SMILES | Relative activity (%) ± SEM of ATP hydrolysis, NTPDase3 (NTPDase3) [%] | inhibition at 10 µM (NPP1; 10 μM, n = 3, read-out: % inhibition ± SEM at 10 μM, human NPP1) [%] | Ki (NPP1; read-out: Ki (μM ± SD), human NPP1 (converted)) [µM] | % inhibition ± SEM, rat CD73 (rat CD73) | % activation at 10 μM, P2Y1 (human P2Y1R) [%]
O=c1ccn([C@@H]2O[C@H](COP(=S)(S)OP(=O)(O)OP(=O)(O)O)[C@@H](O)[C@H]2O)c(=O)[nH]1 (some centres unmarked) [Analogue 10] | 39.7 ± 1.9 | – | – | – | –
Nc1ncnc2c1ncn2COCCOP(=S)(S)OP(=O)(O)O (centres unmarked) [compound 106] | – | 68 ± 1 | 0.305 | n.i.d | 2 ± 2
